Laboratory results as given in patent US8207156B2, “Substituted pyrazoline compounds, their preparation and use as medicaments” (Laboratorios Del Dr. Esteve, S.A., priority 2005, dated 2012).
Structures can show the parent of a compound that is named as a salt.

Key:
CB1 receptor [1] = molecular target: T1, CB1 receptor; assay: In-vitro determination of affinity to CB1/CB2-receptors (radioligand [3H]-CP55940 binding); conditions: binding data per pharmacological methods part I, table does not say whether human transfected receptor or rat cerebellum
T1 construct: IC50 [nM]; radioligand [3H]-CP55940
Method: (§1) The in-vitro determination of the affinity of the inventive substituted pyrazoline compounds to CB1/CB2-Rezeptors is carried out as described in the publication of Ruth A. Ross, Heather C. Brockie et al., “Agonist-inverse agonist characterization at CB1 and CB2 cannabinoid receptors of L-759633, L759656 and AM630”, British Journal of Pharmacology, 126, 665-672, (1999), whereby the transfected human CB1 and CB2 receptors of Receptor Biology, Inc. are used. The radioligand used for both receptors is [^3H]-CP55940. The respective parts of the description is hereby incorporated by reference and forms part of the present disclosure.
(§2) Binding affinity to CB1 receptor was evaluated according to a modification of the method described by Govaerts et al., Eur J Pharmac Sci 23, 233-243 (2004). The respective parts of the description is hereby incorporated by reference and forms part of the present disclosure.
(§3) Briefly, cerebellum from male wistar rats (250-300 g) were carefully dissected on ice and homogenates were prepared with Potter-Helveheim in a cold 50 mM Tris-HCl solution containing 5 mM MgCl2, 1 mM EDTA and 0.25 M sucrose, pH 7.4. The suspension was centrifuged at 1,000×g for 5 minutes. The supernatants were collected and centrifuged 50,000×g for 15 minutes. The resulting pellets were then resuspended in Tris-HCl buffer without sucrose, homogenized and incubated for 15 min at 37° C. in an orbital shaker bath and centrifuged again at 50,000×g for 15 min. Pellets were weighted, resuspended in Tris-HCl buffer without sucrose, homogenized with Ultraturrax at 13,500 rpm for 3×5 seconds and alicuoted in 0.9 ml volumes in Eppendorf tubes. Alicuotes were centrifuged at 20,800×g for 5 minutes, supernatants discarded and pellets were frozen at −80° C. until use. Total protein concentration was determined using the Bio-Rad Lowry method based kit. Competitive binding experiments were performed in presence of 1 nM [^3H]-CP 55,940 in siliconized glass tubes containing 100 μg protein/tube resuspended in 1 ml final volume of 50 mM Tris-HCl, 5 mM MgCl2, 1 mM EDTA, 0.5% (w/v) bovine serum albumin, pH 7.4. Compounds were present at various concentrations and the non specific binding was determined in the presence of 10 μM HU-210. After 1 hour incubation at 30° C., the suspension was rapidly filtered through 0.5% PEI pre-treated GF/B fiber filters on a 96-well harvester and washed 3 times with 3 ml ice-cold binding buffer without bovine serum albumin. Radioactivity on filters was measured with Wallac Winspectral 1414 counter by liquid scintillation in 6 ml Ecoscint H (National Diagnostics, U.K.). Assays were made in triplicates.
(§4) Binding data were analyzed by non-linear regression with the software GraphPad Prism Version 3.03.

CB1 receptor [2] = molecular target: T2, CB1 receptor (UniProt P20272); assay: as above; conditions: for Inhibition [%], 10^−7 M: compound at 10^−7 M; for Inhibition [%], 10^−8 M: compound at 10^−8 M
T2 construct: other: compound at 10^−7 M; radioligand [3H]-CP55940; other: compound at 10^−8 M
Method: as §1, §2, §3, §4

[3] = molecular target: recombinant human cannabinoid 1 receptor (CB1) (Homo sapiens, UniProt P21554); assay: In vitro determination of antagonism to CB1-receptor ([35S]GTPγS binding assay, CHO cell membranes); format: biochemical; conditions: compound at 1 μM against agonist WIN 55,212-2 (3 nM to 3 μM); effect of Rimonabant (1 μM) defined as 100%
Chain of recombinant human cannabinoid 1 receptor (CB1) (P21554 whole entry): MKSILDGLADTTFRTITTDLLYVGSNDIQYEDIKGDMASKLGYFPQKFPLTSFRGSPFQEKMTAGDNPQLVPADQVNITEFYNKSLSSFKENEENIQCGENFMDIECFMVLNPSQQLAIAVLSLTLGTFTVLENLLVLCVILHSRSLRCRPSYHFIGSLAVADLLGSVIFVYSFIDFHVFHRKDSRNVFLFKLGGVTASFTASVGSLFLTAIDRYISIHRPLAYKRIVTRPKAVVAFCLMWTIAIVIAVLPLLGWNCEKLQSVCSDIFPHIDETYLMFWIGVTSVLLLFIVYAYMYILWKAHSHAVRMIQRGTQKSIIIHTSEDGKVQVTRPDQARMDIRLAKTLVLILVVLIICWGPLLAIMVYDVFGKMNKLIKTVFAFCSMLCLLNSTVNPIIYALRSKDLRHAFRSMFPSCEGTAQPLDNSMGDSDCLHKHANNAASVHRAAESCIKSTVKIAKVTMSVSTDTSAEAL
Method: Chinese hamster ovary (CHO) cells stably expressing recombinant human cannabinoid 1 receptor (CB1) were cultured in nutrient mixture Ham's F 12 supplemented with 10% heat-inactivated fetal bovine serum, 2 mM L-glutamine, 50 U/ml penicillin, 50 U/ml streptomycin and 0.5 mg/ml geneticin. In order to obtain cells, culture flasks were washed twice with phosphate buffered saline and scraped. Then, cells were collected by centrifugation (200×g, 10 min) and stored dry at −80° C. Cells were homogenized in ice-cold 20 mM HEPES, 10 mM EDTA (pH 7.5) and centrifuged at 40,000×g for 15 min at 4° C. The membrane pellet was resuspended in 20 mM HEPES, 0.1 mM EDTA (pH 7.5) and centrifuged for 15 min at 4° C. The final membrane pellet was resuspended in 20 mM HEPES, 0.1 mM EDTA (pH 7.5), and divided in aliquots and stored at −80° C. until use.
The reaction was performed in 96-well plates. Membranes (15 μg protein/well) were incubated for 60 min at 30° C. in buffer (50 mM HEPES, 100 mM KCl, 5 mM MgCl2,1 mM EDTA, 0.1% wt/vol bovine serum albumin, 5 μM GDP, saponin (10 μg/ml), 0.5 nM [^35S]GTPγS, pH 7.4) with compound at a final concentration of 1 μM in either the absence or presence of agonist WIN 55, 212-2 between 3 nM and 3 μM. The incubation was terminated by rapid filtration through Millipore Multiscreen glass fiber FB, and rinsed two-times with ice-cold assay buffer. Filter plates were dried and 30 μl of scintillation liquid was added. Radioactivity was determined using a Wallac Microbeta Trilux. Each experiment was performed at least in duplicate. A WIN 55, 212-2 dose-response experiment either alone or in the presence of Rimonabant (1 μM) was systematically performed.
The average of basal [^35S]GTPγS binding was subtracted from all binding data. In order to compare the antagonism results from one screening campaign to another one, the difference between the maximal agonist effect of WIN 55, 212-2 alone, and the maximal antagonism effect due to WIN 55, 212-2 plus Rimonabant (1 μM) was defined as 100%.

O=C(NN1CCCC1)C1=NN(c2ccc(Cl)cc2Cl)C(c2ccc(Cl)cc2)C1 (stereo not drawn) [Example 11, 5-(4-Chloro-phenyl)-1-(2,4-dichloro-phenyl)-4,5-dihydro-1H-pyrazole-3-carboxylic acid pyrrolidin-1-ylamide]
IC50 (CB1 receptor [1]): 630 nM

O=C(NC1CCCCCC1)C1=NN(c2ccc(Cl)cc2Cl)C(c2ccc(F)cc2)C1 (stereo not drawn) [Example 131, 5-(4-Fluorophenyl)-1-(2,4-dichloro-phenyl)-4,5-dihydro-1H-pyrazole-3-carboxylic acid cycloheptylamide]
IC50 (CB1 receptor [1]): 115 nM
Inhibition [%], 10^−7 M (CB1 receptor [2]): 70.2%
Inhibition [%], 10^−8 M (CB1 receptor [2]): 42.9%

COc1ccc(C2CC(C(=O)NN3CC4CCCC4C3)=NN2c2ccc(Cl)cc2Cl)cc1.Cl (stereo not drawn) [Example 109, 1-(2,4-Dichloro-phenyl)-5-(4-methoxy-phenyl)-4,5-dihydro-1H-pyrazole-3-carboxylic acid (hexahydro-cyclopenta[c]pyrrol-2-yl)-amide hydrochloride]
IC50 (CB1 receptor [1]; hydrochloride): 16 nM
Inhibition [%], 10^−7 M (CB1 receptor [2]; hydrochloride): 80.6%
Inhibition [%], 10^−8 M (CB1 receptor [2]; hydrochloride): 44%

O=C(NN1CCOCC1)C1=NN(c2ccc(Cl)cc2Cl)C(c2ccc(Cl)cc2)C1 (stereo not drawn) [Example 8, 5-(4-Chloro-phenyl)-1-(2,4-dichloro-phenyl)-4,5-dihydro-1H-pyrazole-3-carboxylic acid morpholin-4-ylamide]
Antagonism [%] [3]: 54%
Inhibition [%], 10^−7 M (CB1 receptor [2]): 21.9%
Inhibition [%], 10^−8 M (CB1 receptor [2]): −8.2%

O=C(NN1CCCCCCC1)C1=NN(c2ccc(Cl)cc2Cl)C(c2ccc(Br)cc2)C1 (stereo not drawn) [Example 146, 5-(4-bromo-phenyl)-1-(2,4-dichloro-phenyl)-4,5-dihydro-1H-pyrazole-3-carboxylic acid azocan-1-ylamide]
IC50 (CB1 receptor [1]): 12 nM
Inhibition [%], 10^−7 M (CB1 receptor [2]): 71.8%
Inhibition [%], 10^−8 M (CB1 receptor [2]): 35.2%

Cl.O=C(NN1CCc2ccccc21)C1=NN(c2ccc(Cl)cc2Cl)[C@@H](c2ccc(Cl)cc2)C1 [Example 181, (R)-5-(4-Chloro-phenyl)-1-(2,4-dichloro-phenyl)-4,5-dihydro-1H-pyrazole-3-carboxylic acid (2,3-dihydro-indol-1-yl)-amide hydrochloride]
IC50 (CB1 receptor [1]; hydrochloride): 24 nM
Inhibition [%], 10^−7 M (CB1 receptor [2]): 50.6%
Inhibition [%], 10^−8 M (CB1 receptor [2]): 33.7%

O=C(N[C@@H]1CCCC[C@H]1OCc1ccccc1)C1=NN(c2ccc(Cl)cc2Cl)C(c2ccc(Cl)cc2)C1 (stereo partly drawn) [Example 178, N-((1R,2R)-2-(benzyloxy)cyclohexyl)-5-(4-chlorophenyl)-1-(2,4-dichlorophenyl)-4,5-dihydro-1H-pyrazole-3-carboxamide]
IC50 (CB1 receptor [1]): 119 nM
Inhibition [%], 10^−7 M (CB1 receptor [2]): 58%
Inhibition [%], 10^−8 M (CB1 receptor [2]): 41.2%

CC(C)(C)C1CCC(NC(=O)C2=NN(c3ccc(Cl)cc3Cl)C(c3ccc(Cl)cc3)C2)CC1 (stereo not drawn) [Example 31, 5-(4-Chloro-phenyl)-1-(2,4-dichloro-phenyl)-4,5-dihydro-1H-pyrazole-3-carboxylic acid (4-tert-butyl-cyclohexyl)-amide]
IC50 (CB1 receptor [1]): > 1000 nM

O=C(C1=NN(c2ccc(Cl)cc2Cl)C(c2ccc(Cl)cc2)C1)N1CCN(Cc2ccccc2)CC1 (stereo not drawn) [Example 52, (4-Benzyl-piperazin-1-yl)-[5-(4-chloro-phenyl)-1-(2,4-dichloro-phenyl)-4,5-dihydro-1H-pyrazol-3-yl]-methanone]
IC50 (CB1 receptor [1]): 251 nM

CCCNC(=O)C1=NN(c2ccc(Cl)cc2Cl)C(c2ccc(Cl)cc2)C1 (stereo not drawn) [Example 69, 5-(4-Chloro-phenyl)-1-(2,4-dichloro-phenyl)-4,5-dihydro-1H-pyrazole-3-carboxylic acid propylamide]
IC50 (CB1 receptor [1]): 355 nM

O=C(NCC1CCCCCC1)C1=NN(c2ccc(Cl)cc2Cl)C(c2ccc(Cl)cc2)C1 (stereo not drawn) [Example 191, 5-(4-Chloro-phenyl)-1-(2,4-dichloro-phenyl)-4,5-dihydro-1H-pyrazole-3-carboxylic acid cycloheptylmethyl-amide]
Antagonism [%] [3]: 82%
Inhibition [%], 10^−7 M (CB1 receptor [2]): 67.4%
Inhibition [%], 10^−8 M (CB1 receptor [2]): 30.2%

CCCCN(NC(=O)C1=NN(c2ccc(Cl)cc2Cl)C(c2ccc(Cl)cc2)C1)c1ccccc1 (stereo not drawn) [Example 29, 5-(4-Chloro-phenyl)-1-(2,4-dichloro-phenyl)-4,5-dihydro-1H-pyrazole-3-carboxylic acid N′-butyl-N′-phenyl-hydrazide]
IC50 (CB1 receptor [1]): > 1000 nM

O=C(NC1CCCCC1)C1=NN(c2ccc(Cl)cc2Cl)C(c2ccc(Cl)cc2)C1 (stereo not drawn) [Example 41, 5-(4-Chloro-phenyl)-1-(2,4-dichloro-phenyl)-4,5-dihydro-1H-pyrazole-3-carboxylic acid cyclohexylamide]
Antagonism [%] [3]: 69%
Inhibition [%], 10^−7 M (CB1 receptor [2]): 3.4%
Inhibition [%], 10^−8 M (CB1 receptor [2]): −5.2%

Cl.O=C(NN1CCCC1)C1=NN(c2ccc(Cl)cc2Cl)C(c2ccc(Cl)cc2)C1 (stereo not drawn) [Example 194, 5-(4-Chloro-phenyl)-1-(2,4-dichloro-phenyl)-4,5-dihydro-1H-pyrazole-3-carboxylic acid pyrrolidin-1-ylamide hydrochloride]
Antagonism [%] [3]: 82%
Inhibition [%], 10^−7 M (CB1 receptor [2]): 41.7%
Inhibition [%], 10^−8 M (CB1 receptor [2]): 22.9%

CCOC(=O)C1=NN(c2ccc(Cl)cc2Cl)C(c2ccc(Cl)cc2)C1 (stereo not drawn) [Example 120, 5-(4-Chloro-phenyl)-1-(2,4-dichloro-phenyl)-4,5-dihydro-1H-pyrazole-3-carboxylic acid ethyl ester]
Antagonism [%] [3]: 30%
Inhibition [%], 10^−7 M (CB1 receptor [2]): 7.1%
Inhibition [%], 10^−8 M (CB1 receptor [2]): −4.1%

COC(=O)C1=NN(c2ccc(Cl)cc2Cl)C(c2ccc(Cl)cc2)C1 (stereo not drawn) [Example 115, 5-(4-Chloro-phenyl)-1-(2,4-dichloro-phenyl)-4,5-dihydro-1H-pyrazole-3-carboxylic acid methyl ester]
Antagonism [%] [3]: 23%
Inhibition [%], 10^−7 M (CB1 receptor [2]): −4.3%
Inhibition [%], 10^−8 M (CB1 receptor [2]): 1.9%

O=C(NN1CCCCC1)C1=NN(c2ccc(Cl)cc2Cl)C(c2ccc(Br)cc2)C1 (stereo not drawn) [Example 60, 5-(4-Bromo-phenyl)-1-(2,4-dichloro-phenyl)-4,5-dihydro-1H-pyrazole-3-carboxylic acid piperidin-1-ylamide hydrochloride]
IC50 (CB1 receptor [1]; hydrochloride): 27 nM
